Experimental findings from ChEMBL document CHEMBL1201862, “PubChem BioAssay data set” (2004) are described below.

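Interpolation was linear, between the two tested concentrations surrounding the appropriate level; five concentrations were tested over 48 hours in 96-well plates. GI50 = concentration required for 50% inhibition of growth.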 Activity calls are given as the source filed them. Cut-off read from the data, not from the text of the source: active = GI50 up to about 1.1 µM and inactive = higher.

Some test systems named below: A549; ACHN; EKVX; HCC 2998; HCT-15; IGROV-1; MCF7; MDA-MB-435; NCI-H522; OVCAR-3; OVCAR-5; OVCAR-8; RPMI-8226; RXF 393; SF-268; SK-MEL-28; SK-MEL-5; SW-620; U-251; UO-31.
Test in all cases: NCI-60 cell line screen, 48 h

`N#C/C(=C\c1cc(O)c(O)c(O)c1)C(N)=O`: the GI50 in the assay with A549 is > 100 µM (inactive); in the assay on ACHN, > 93.8 µM (inactive); in the assay with EKVX, > 91 µM (inactive); with HCC 2998, > 100 µM (inactive); in the assay with HCT-15, above 74.5 µM; in the assay on IGROV-1, > 100 µM (inactive). In addition, the GI50 in the assay with MCF7 is > 39.4 µM (inactive); with MDA-MB-435, > 55.7 µM (inactive); with NCI-H522, > 66.4 µM (inactive); in the assay with OVCAR-3 it was > 72.8 µM (inactive); in the assay on OVCAR-5 it was > 100 µM (inactive); in the assay with OVCAR-8 it was > 100 µM (inactive). For the same compound, the GI50 in the assay with RPMI-8226 was > 100 µM (inactive); in the assay with RXF 393 it was > 100 µM (inactive); in the assay with SF-268, 67.3 µM (inactive); in the assay on SK-MEL-28 it was > 100 µM (inactive); in the assay on SK-MEL-5, > 69.5 µM (inactive); with SW-620 it was > 84.5 µM (inactive). For the same compound, the GI50 was > 87.5 µM (inactive) in the assay with U-251 and > 74.1 µM (inactive) in the assay on UO-31.
Take `C#CCCOC(=O)CC1=C(C)/C(=C/c2ccc([S+](C)[O-])cc2)c2ccc(F)cc21` (configuration not stated): the GI50 in the assay with ACHN was 19.7 µM (inactive); in the assay with EKVX it was 22.8 µM (inactive); in the assay on HCC 2998, 10.4 µM (inactive); in the assay on HCT-15, 12.9 µM; with IGROV-1, 20.8 µM (inactive); in the assay on MCF7 it was 19.4 µM (inactive). The GI50 in the assay with MDA-MB-435 was 4.67 µM (inactive); with NCI-H522, 17.3 µM (inactive); in the assay with OVCAR-3 it was 15.4 µM (inactive); in the assay on OVCAR-5, 34.2 µM (inactive); in the assay on OVCAR-8, 19.7 µM (inactive); in the assay with RPMI-8226 it was 11 µM (inactive). The GI50 with RXF 393 is 21.4 µM (inactive); with SF-268 it was 20.6 µM (inactive); in the assay on SK-MEL-5, 12.3 µM (inactive); in the assay with SW-620 it was 14.3 µM (inactive); in the assay on U-251 it was 15 µM (inactive); in the assay with UO-31, 15.5 µM (inactive).
Turning to `CCn1c2nc(=O)n(CCCCCCCCSC(c3ccccc3)(c3ccccc3)c3ccccc3)c(=O)c-2nc2ccccc21`, the GI50 in the assay on ACHN is 3.21 µM (inactive); in the assay on EKVX, 7.83 µM (inactive); in the assay on HCC 2998 it was 2.67 µM (inactive); in the assay with HCT-15, 8.38 µM; in the assay with IGROV-1, 31.3 µM (inactive); in the assay with MCF7, 6.19 µM (inactive). Further, the GI50 with MDA-MB-435 was 6.12 µM (inactive); in the assay on NCI-H522, 3.13 µM (inactive); in the assay with OVCAR-3 it was 6.7 µM (inactive); in the assay on OVCAR-5, > 100 µM (inactive); in the assay with OVCAR-8, 43.6 µM (inactive); in the assay on RPMI-8226, 4.22 µM (inactive). Also, the GI50 with RXF 393 was 11.3 µM (inactive); in the assay on SF-268, 4.08 µM (inactive); with SK-MEL-28, 53.3 µM (inactive); in the assay with SK-MEL-5, 3.44 µM (inactive); in the assay with SW-620, 3.41 µM (inactive); in the assay on U-251 it was 19 µM (inactive). In addition, in the assay with UO-31, the GI50 is 6.65 µM (inactive).
Regarding `C/C(=N\NC(=S)N1CCC1)c1ccccn1`, the GI50 in the assay with A549 is 0.0246 µM (active); in the assay with ACHN, 0.01 µM (active); in the assay on EKVX it was 0.0658 µM (active); in the assay with HCC 2998, 0.374 µM (active); in the assay with HCT-15, below 0.0219 µM; with IGROV-1, 0.01 µM (active). For the same compound, the GI50 in the assay on MCF7 was 0.0015 µM (active); with MDA-MB-435, 0.0264 µM (active); in the assay on NCI-H522, < 0.0497 µM (active); with OVCAR-3, 0.01 µM (active); in the assay on OVCAR-8, 0.01 µM (active); in the assay with RPMI-8226, 0.01 µM (active). Besides, the GI50 is 0.163 µM (active) with RXF 393; 0.824 µM (active) in the assay with SF-268; 0.425 µM (active) in the assay on SK-MEL-28; < 0.0196 µM (active) with SK-MEL-5; < 0.0103 µM (active) in the assay with SW-620; 0.01 µM (active) with U-251. For the same compound, in the assay with UO-31, the GI50 was 0.427 µM (active).
In the case of `C/C(=N\c1ccc(Cl)cc1)c1ccncc1`, the GI50 is 4.73 µM (inactive) with A549; 0.233 µM (active) in the assay on ACHN; 27.9 µM (inactive) in the assay with EKVX; > 100 µM (inactive) in the assay with HCC 2998; 0.36 µM in the assay with HCT-15; 32.4 µM (inactive) in the assay with MCF7. Further, the GI50 with MDA-MB-435 is 1.9 µM (inactive); in the assay with NCI-H522, > 100 µM (inactive); in the assay on OVCAR-3, 41 µM (inactive); in the assay on OVCAR-5, > 100 µM (inactive); in the assay with OVCAR-8, > 100 µM (inactive); with RPMI-8226 it was 7.08 µM (inactive). The GI50 in the assay on RXF 393 is > 100 µM (inactive); in the assay on SF-268, 53.5 µM (inactive); in the assay with SK-MEL-28, 5.14 µM (inactive); in the assay with SK-MEL-5, 2.13 µM (inactive); in the assay with SW-620 it was 2.72 µM (inactive); in the assay with U-251, > 100 µM (inactive). The GI50 in the assay on UO-31 was 4.04 µM (inactive).
Consider `O=[N+]([O-])/C(C(Cl)=C(Cl)Cl)=C(\SCc1ccccc1)N1CCCCC1`, for which the GI50 is 30.9 µM (inactive) in the assay on A549; 17.4 µM (inactive) in the assay with ACHN; 70.3 µM (inactive) in the assay with EKVX; 23.4 µM (inactive) in the assay with HCC 2998; 19.7 µM in the assay with HCT-15; 24.6 µM (inactive) in the assay with IGROV-1. Also, the GI50 is 12.6 µM (inactive) in the assay with MCF7; 16.3 µM (inactive) in the assay with MDA-MB-435; 14.7 µM (inactive) with NCI-H522; 14.1 µM (inactive) with OVCAR-3; 20.4 µM (inactive) in the assay on OVCAR-5; 20.6 µM (inactive) in the assay on OVCAR-8. Besides, the GI50 is 11.5 µM (inactive) with RPMI-8226; 19.7 µM (inactive) in the assay with RXF 393; 23.7 µM (inactive) with SF-268; 37.2 µM (inactive) in the assay with SK-MEL-28; 15.8 µM (inactive) with SK-MEL-5; 43.8 µM (inactive) in the assay with U-251. For the same compound, the GI50 with UO-31 is 24.2 µM (inactive).
Turning to `NCCCNOCCCN`, the GI50 in the assay on A549 is > 100 µM (inactive); in the assay with ACHN it was > 100 µM (inactive); in the assay on HCC 2998, > 100 µM (inactive); in the assay with HCT-15, above 100 µM; in the assay with MCF7 it was > 100 µM (inactive); with MDA-MB-435, > 100 µM (inactive). The GI50 in the assay with NCI-H522, with OVCAR-3, in the assay on OVCAR-5, with OVCAR-8, in the assay with RPMI-8226 and in the assay with RXF 393 was > 100 µM (inactive) throughout. The GI50 with SF-268 was > 100 µM (inactive); with SK-MEL-28 it was > 100 µM (inactive); in the assay with SK-MEL-5 it was > 100 µM (inactive); in the assay on SW-620, > 100 µM (inactive); with U-251 it was 43.7 µM (inactive); with UO-31, > 100 µM (inactive).
With `CC(=O)C1=CC=C/C1=N\Nc1ccccc1`, the GI50 was 15.1 µM (inactive) with A549; 11.2 µM (inactive) with ACHN; 5.6 µM (inactive) with EKVX; 6.07 µM (inactive) in the assay with HCC 2998; 5.14 µM with HCT-15; 7.4 µM (inactive) in the assay on IGROV-1. Moreover, the GI50 in the assay with MCF7 was 1.29 µM (inactive); in the assay with MDA-MB-435 it was 13.1 µM (inactive); in the assay with NCI-H522 it was 4.71 µM (inactive); in the assay on OVCAR-3, 3.22 µM (inactive); with OVCAR-5, 7 µM (inactive); in the assay with OVCAR-8, 9.73 µM (inactive). The GI50 in the assay on RPMI-8226 is 1.98 µM (inactive); with RXF 393, 11.6 µM (inactive); in the assay with SF-268, 7.43 µM (inactive); with SK-MEL-28 it was 14 µM (inactive); in the assay on SK-MEL-5, 15.6 µM (inactive); with SW-620, 3.82 µM (inactive). Moreover, the GI50 in the assay on U-251 is 2.97 µM (inactive); in the assay with UO-31 it was 13.1 µM (inactive).
With `COc1ccc2c(c1O)[C@@]13C=C(O)C(=O)C=C1[C@@H](C2)N(C)CC3`, the GI50 in the assay with A549 was > 100 µM (inactive); in the assay with ACHN, 43.6 µM (inactive); in the assay on EKVX, > 100 µM (inactive); with HCC 2998 it was > 100 µM (inactive); with HCT-15, 68.7 µM; with IGROV-1 it was 61.1 µM (inactive). Further, the GI50 in the assay on MCF7 is 65.2 µM (inactive); in the assay on MDA-MB-435, 40.6 µM (inactive); in the assay on NCI-H522, 28.8 µM (inactive); in the assay with OVCAR-3 it was 26.9 µM (inactive); in the assay on OVCAR-5, > 100 µM (inactive); with OVCAR-8, 51.9 µM (inactive). The GI50 with RPMI-8226 is > 100 µM (inactive); in the assay on RXF 393, 48.1 µM (inactive); with SF-268, 28.6 µM (inactive); in the assay on SK-MEL-28, 87.7 µM (inactive); with SK-MEL-5, 60.3 µM (inactive); with U-251, 86.1 µM (inactive). Also, the GI50 in the assay on UO-31 is 51.9 µM (inactive).
Take `OC1c2ccccc2CCC1CN1CCN(CCOC(c2ccc(F)cc2)c2ccc(F)cc2)CC1` (configuration not stated): the GI50 is 23.6 µM (inactive) with A549; 21.6 µM (inactive) with ACHN; 4.79 µM (inactive) in the assay with HCC 2998; 6.05 µM in the assay with HCT-15; 17.9 µM (inactive) with IGROV-1; 14.5 µM (inactive) in the assay with MCF7. Also, the GI50 in the assay with MDA-MB-435 was 17.5 µM (inactive); in the assay on NCI-H522, 15.7 µM (inactive); in the assay on OVCAR-3 it was 17.4 µM (inactive); with OVCAR-8, 14.3 µM (inactive); in the assay on RPMI-8226 it was 5.77 µM (inactive); in the assay with RXF 393, 6.18 µM (inactive). The GI50 in the assay on SF-268 is 16.6 µM (inactive); in the assay with SK-MEL-28 it was 13.3 µM (inactive); in the assay on SK-MEL-5 it was 4.79 µM (inactive); in the assay on SW-620, 16.2 µM (inactive); in the assay with U-251 it was 13.8 µM (inactive).
Take `Brc1ccc(C2=NCSC(c3ccc(Br)cc3)=N2)cc1`: the GI50 in the assay with A549 was 32.3 µM (inactive); in the assay on ACHN it was 21.7 µM (inactive); in the assay on EKVX it was 11.6 µM (inactive); in the assay on HCC 2998 it was 23 µM (inactive); with HCT-15, 28.2 µM; with IGROV-1 it was 33.2 µM (inactive). Besides, the GI50 is 32.2 µM (inactive) in the assay on MCF7; 28.8 µM (inactive) in the assay with MDA-MB-435; 22.2 µM (inactive) with NCI-H522; 76 µM (inactive) in the assay with OVCAR-5; 37.8 µM (inactive) in the assay on OVCAR-8; 16.1 µM (inactive) with RPMI-8226. The GI50 with RXF 393 was 8.53 µM (inactive); in the assay with SF-268, 53.3 µM (inactive); with SK-MEL-28, 46.5 µM (inactive); in the assay with SK-MEL-5, 25.2 µM (inactive); with SW-620 it was 12.1 µM (inactive); in the assay on U-251, 16.7 µM (inactive). Further, the GI50 in the assay with UO-31 is 15.4 µM (inactive).
